# Legend:
# Format in all cases: in vivo
# [1] = test system: Monochoria (Monochoria vaginalis); experiment: Test F flooded paddy test; design: key: 0 = no effect, 100 = complete control; details: Flood
# From the text: (§1) Plant species in the flooded paddy test consisted of one stand of 9 or 10 water seeded rice seedlings (Rice, W. S. Jap, Oryza sativa cv. ‘Japonica—M202’ or Rice, W. S. Ind, ‘Indica’), and two stands of 3 or 4 transplanted rice seedlings (Oryza sativa cv. ‘Japonica—M202’), Monochoria (Monochoria vaginalis), sedge, umbrella (small-flower umbrella sedge, Cyperus difformis), hardstem bulrush (Scirpus juncoides), redstem (purple redstem, Ammannia coccinea), rice flatsedge (Cyperus iria), bearded sprangletop (Leptochloa fascicularis), barnyardgrass (Echinochloa crus-galli), waterplantain (common waterplantain, Alisma plantago-aquatica), and late watergrass (Echinochloa oryzicola) grown to the 2 to 2.5 leaf stage for testing. Potted plants were grown in a greenhouse with day/night temperature settings of 30/27° C., and supplemental balanced lighting was provided to maintain a 16-hour photoperiod. At time of treatment, test pots were flooded to 3 cm above the soil surface, treated by application of test compounds directly to the paddy water, and then maintained at that water depth for the duration of the test. Effects of treatments on rice and weeds were visually evaluated by comparison to untreated controls after 21 d. Plant response ratings, summarized in Table F, are based on a scale of 0 to 100 where 0 is no effect and 100 is complete control. A dash (-) response means no test result.
# [2] = test system: barnyardgrass (Echinochloa crus-galli); experiment: Test F flooded paddy test; design: key: 0 = no effect, 100 = complete control; details: Flood
# From the text: as §1
# [3] = test system: bearded sprangletop (Leptochloa fascicularis); experiment: Test F flooded paddy test; design: key: 0 = no effect, 100 = complete control; details: Flood
# From the text: as §1
# [4] = test system: late watergrass (Echinochloa oryzicola); experiment: Test F flooded paddy test; design: key: 0 = no effect, 100 = complete control; details: Flood
# From the text: as §1
# [5] = test system: transplanted rice seedlings (Oryza sativa cv. ‘Japonica—M202’); experiment: Test F flooded paddy test; design: key: 0 = no effect, 100 = complete control; details: Flood
# From the text: as §1
# [6] = test system: water seeded rice seedlings (Rice, W. S. Jap, Oryza sativa cv. ‘Japonica—M202’); experiment: Test F flooded paddy test; design: key: 0 = no effect, 100 = complete control; details: Flood
# From the text: as §1
# [7] = test system: horseweed (Conyza canadensis); experiment: Test E preemergence; details: scale 0 to 100
# How it was run: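 Seeds sown in silt loam treated preemergence, or plants 2 to 18 cm tall in peat-based potting medium treated postemergence, with test chemical in a non-phytotoxic solvent mixture containing surfactant. Kept in greenhouse 14 to 21 d, then visually rated against controls on a 0–100 scale (0 no effect, 100 complete control).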
# [8] = test system: corn (Zea mays); experiment: Test E postemergence; details: scale 0 to 100
# From the text: (§2) Seeds of plant species selected from corn (Zea mays), soybean (Glycine max), velvetleaf (Abutilon theophrasti), lambsquarters (Chenopodium album), poinsettia, wild (wild poinsettia, Euphorbia heterophylla), pigweed, palmer (palmer pigweed, Amaranthus palmeri), waterhemp (common waterhemp, Amaranthus rudis), surinam grass (Brachiaria decumbens), crabgrass, large (large crabgrass, Digitaria sangumnalis), crabgrass, Brazil (Brazilian crabgrass, Digitaria horizontalis), Panicum, fall (fall Panicum, Panicum dichotomiflorum), foxtail, giant (giant foxtail, Setaria faberii), foxtail, green (green foxtail, Setaria viridis), goosegrass (Eleusine indica), johnsongrass (Sorghum halepense), ragweed (common ragweed, Ambrosia elatior), barnyardgrass (Echinochloa crus-galli), sandbur (southern sandbur, Cenchrus echinatus), arrowleaf Sida (Sida rhombifolia), ryegrass, Italian (Italian ryegrass, Lolium multiflorum), dayflower, VA (Virginia dayflower, Commelina virginica), field bindweed (Convolvulus arvensis), morningglory (Ipomoea coccinea), nightshade (eastern black nightshade, Solanum ptycanthum), Kochia (Kochia scoparia), nutsedge, yellow (yellow nutsedge, Cyperus esculentus), horseweed (Conyza canadensis), and beggarticks (hairy beggarticks, Bidens pilosa), were planted into a silt loam soil and treated preemergence with test chemicals formulated in a non-phytotoxic solvent mixture which included a surfactant.
# (§3) At the same time, plants selected from these crop and weed species were planted in pots containing Sunshine Redi-Earth planting medium comprising spaghnum peat moss, vermiculite, starter nutrients and dolomitic limestone and treated with postemergence applications of a test chemical formulated in the same manner. Plants ranged in height from 2 to 18 cm (1- to 4-leaf stage) for postemergence treatments. Treated plants and controls were maintained in a greenhouse for 14 to 21 d, after which time all species were compared to controls and visually evaluated. Plant response ratings, summarized in Table E, are based on a scale of 0 to 100 where 0 is no effect and 100 is complete control. A dash (-) response means no test result.
# [9] = test system: crabgrass, large (large crabgrass, Digitaria sangumnalis); experiment: Test E postemergence; details: scale 0 to 100
# From the text: as §2, §3
# [10] = test system: foxtail, giant (giant foxtail, Setaria faberii); experiment: Test E postemergence; details: scale 0 to 100
# From the text: as §2, §3
# [11] = test system: pigweed, palmer (palmer pigweed, Amaranthus palmeri); experiment: Test E postemergence; details: scale 0 to 100
# From the text: as §2, §3
# [12] = test system: soybean (Glycine max); experiment: Test E postemergence; details: scale 0 to 100
# From the text: as §2, §3
# [13] = test system: waterhemp (common waterhemp, Amaranthus rudis); experiment: Test E postemergence; details: scale 0 to 100
# From the text: as §2, §3
smiles,measurement,setting,value
"CN1C[C@H](c2ccc(F)c(F)c2)[C@@H](C(=O)Nc2ccccc2F)C1=O [Compound 596, (3S,4S)-4-(3,4-difluorophenyl)-N-(2-fluorophenyl)-1-methyl-2-oxo-3-pyrrolidinecarboxamide]",Plant response rating: Monochoria,[1]; 16 g ai/ha,25
same,Plant response rating: Monochoria,[1]; 32 g ai/ha,45
same,Plant response rating: Monochoria,[1]; 64 g ai/ha,100
same,Plant response rating: Monochoria,[1]; 125 g ai/ha,100
same,Plant response rating: Monochoria,[1]; 250 g ai/ha,100
same,Plant response rating: Barnyardgrass,[2]; 16 g ai/ha,45
same,Plant response rating: Barnyardgrass,[2]; 32 g ai/ha,65
same,Plant response rating: Barnyardgrass,[2]; 64 g ai/ha,100
same,Plant response rating: Barnyardgrass,[2]; 125 g ai/ha,100
same,Plant response rating: Barnyardgrass,[2]; 250 g ai/ha,100
same,"Plant response rating: Sprangletop, Brdd.",[3]; 16 g ai/ha,0
same,"Plant response rating: Sprangletop, Brdd.",[3]; 32 g ai/ha,40
same,"Plant response rating: Sprangletop, Brdd.",[3]; 64 g ai/ha,85
same,"Plant response rating: Sprangletop, Brdd.",[3]; 125 g ai/ha,85
same,"Plant response rating: Sprangletop, Brdd.",[3]; 250 g ai/ha,95
same,"Plant response rating: Watergrass, Late",[4]; 16 g ai/ha,15
same,"Plant response rating: Watergrass, Late",[4]; 32 g ai/ha,40
same,"Plant response rating: Watergrass, Late",[4]; 64 g ai/ha,85
same,"Plant response rating: Watergrass, Late",[4]; 125 g ai/ha,100
same,"Plant response rating: Watergrass, Late",[4]; 250 g ai/ha,100
same,"Plant response rating: Rice, Transplanted",[5]; 16 g ai/ha,0
same,"Plant response rating: Rice, Transplanted",[5]; 32 g ai/ha,0
same,"Plant response rating: Rice, Transplanted",[5]; 64 g ai/ha,0
same,"Plant response rating: Rice, Transplanted",[5]; 125 g ai/ha,0
same,"Plant response rating: Rice, Transplanted",[5]; 250 g ai/ha,0
same,"Plant response rating: Rice, Water Seeded",[6]; 16 g ai/ha,0
same,"Plant response rating: Rice, Water Seeded",[6]; 32 g ai/ha,0
same,"Plant response rating: Rice, Water Seed.",[6]; 64 g ai/ha,10
same,"Plant response rating: Rice, Water Seed.",[6]; 125 g ai/ha,10
same,"Plant response rating: Rice, Water Seeded",[6]; 250 g ai/ha,15
"CN1C[C@H](c2ccc(C(F)(F)F)cc2)[C@@H](C(=O)Nc2cccc(F)c2F)C1=O [Compound 623, (3S,4S)—N-(2,3-difluorophenyl)-1-methyl-2-oxo-4-[4-(trifluoromethyl)phenyl]-3-pyrrolidinecarboxamide]",Plant response rating: Horseweed,[7]; 31 g ai/ha,80
same,Plant response rating: Horseweed,[7]; 62 g ai/ha,90
same,Plant response rating: Horseweed,[7]; 125 g ai/ha,90
same,Plant response rating: Horseweed,[7]; 250 g ai/ha,90
same,Plant response rating: Corn,[8]; 16 g ai/ha,0
same,Plant response rating: Corn,[8]; 31 g ai/ha,0
same,Plant response rating: Corn,[8]; 62 g ai/ha,1
same,Plant response rating: Corn,[8]; 125 g ai/ha,1
same,Plant response rating: Corn,[8]; 250 g ai/ha,4
same,"Plant response rating: Crabgrass, Large",[9]; 16 g ai/ha,1
same,"Plant response rating: Crabgrass, Large",[9]; 31 g ai/ha,10
same,"Plant response rating: Crabgrass, Large",[9]; 62 g ai/ha,10
same,"Plant response rating: Crabgrass, Large",[9]; 125 g ai/ha,30
same,"Plant response rating: Crabgrass, Large",[9]; 250 g ai/ha,55
same,"Plant response rating: Foxtail, Giant",[10]; 16 g ai/ha,5
same,"Plant response rating: Foxtail, Giant",[10]; 31 g ai/ha,54
same,"Plant response rating: Foxtail, Giant",[10]; 62 g ai/ha,56
same,"Plant response rating: Foxtail, Giant",[10]; 125 g ai/ha,78
same,"Plant response rating: Foxtail, Giant",[10]; 250 g ai/ha,69
same,"Plant response rating: Pigweed, Palmer",[11]; 16 g ai/ha,6
same,"Plant response rating: Pigweed, Palmer",[11]; 31 g ai/ha,19
same,"Plant response rating: Pigweed, Palmer",[11]; 62 g ai/ha,43
same,"Plant response rating: Pigweed, Palmer",[11]; 125 g ai/ha,40
same,"Plant response rating: Pigweed, Palmer",[11]; 250 g ai/ha,68
same,Plant response rating: Soybean,[12]; 16 g ai/ha,0
same,Plant response rating: Soybean,[12]; 31 g ai/ha,0
same,Plant response rating: Soybean,[12]; 62 g ai/ha,20
same,Plant response rating: Soybean,[12]; 125 g ai/ha,19
same,Plant response rating: Soybean,[12]; 250 g ai/ha,35
same,Plant response rating: Waterhemp,[13]; 16 g ai/ha,11
same,Plant response rating: Waterhemp,[13]; 31 g ai/ha,45
same,Plant response rating: Waterhemp,[13]; 62 g ai/ha,55
same,Plant response rating: Waterhemp,[13]; 125 g ai/ha,65
same,Plant response rating: Waterhemp,[13]; 250 g ai/ha,68

# — patent US12077503B2, “Substituted cyclic amides and their use as herbicides” (FMC CORPORATION, priority 2015, dated 2024)
